Assay: Antiproliferative activity against VEGF-stimulated HUVEC cells assessed as reduction in cell viability at 0.5 nM preincubated for 1 hr followed by addition of VEGF measured after 72 hrs by MTT assay
Assay type: functional
Details: Homo sapiens
For CC(C)(C)OC(=O)C(C)(C)NC(=O)c1ccccc1Sc1ccc2c(/C=C/c3ccccn3)n[nH]c2c1, the inhibition at 0.0005 µM was 6%. In the case of O=C(N[C@@H]1CN2CC[C@H]1C2)c1ccccc1Nc1ccc2c(/C=C/c3ccccn3)n[nH]c2c1, the inhibition at 0.0005 µM is reported as 12%. Work on O=C(NCCCc1ccccc1)c1ccccc1Nc1ccc2c(/C=C/c3ccccn3)n[nH]c2c1 yielded an inhibition at 0.0005 µM of 50%. Cc1ccc(F)c(NC(=O)c2ccccc2Sc2ccc3c(/C=C/c4ccccn4)n[nH]c3c2)c1 showed an inhibition at 0.0005 µM of -1%. Work on C[C@H](NC(=O)c1ccccc1Sc1ccc2c(/C=C/c3ccccn3)n[nH]c2c1)c1ccccc1 yielded an inhibition at 0.0005 µM of -3%. In the case of CCCCNC(=O)c1ccccc1Nc1ccc2c(/C=C/c3ccccn3)n[nH]c2c1, the inhibition at 0.0005 µM is reported as 52%. O=C(N[C@@H]1c2ccccc2C[C@@H]1O)c1ccccc1Sc1ccc2c(/C=C/c3ccccn3)n[nH]c2c1 gave an inhibition at 0.0005 µM of -6%. O=C(Nc1cc(F)cc(F)c1)c1ccccc1Sc1ccc2c(/C=C/c3ccccn3)n[nH]c2c1 gave an inhibition at 0.0005 µM of -36%. O=C(NCC12CC3CC(CC(C3)C1)C2)c1ccccc1Sc1ccc2c(/C=C/c3ccccn3)n[nH]c2c1 showed an inhibition at 0.0005 µM of 1%. CCc1cccc(NC(=O)c2ccccc2Sc2ccc3c(/C=C/c4ccccn4)n[nH]c3c2)n1 gave an inhibition at 0.0005 µM of -12%. Work on O=C(N[C@@H]1C[C@H]1c1ccccc1)c1ccccc1Sc1ccc2c(/C=C/c3ccccn3)n[nH]c2c1 (racemic) yielded an inhibition at 0.0005 µM of 10%. Work on C[C@H](NC(=O)c1ccccc1Sc1ccc2c(/C=C/c3ccccn3)n[nH]c2c1)[C@H](O)c1ccccc1 yielded an inhibition at 0.0005 µM of 9%. For O=C(N[C@@H](CO)c1ccccc1)c1ccccc1Sc1ccc2c(/C=C/c3ccccn3)n[nH]c2c1, the inhibition at 0.0005 µM was -17%. Cc1ccc(C(N)=O)cc1NC(=O)c1ccccc1Sc1ccc2c(/C=C/c3ccccn3)n[nH]c2c1 showed an inhibition at 0.0005 µM of 15%. O=C(N[C@@H](CO)Cc1ccccc1)c1ccccc1Sc1ccc2c(/C=C/c3ccccn3)n[nH]c2c1 gave an inhibition at 0.0005 µM of -3%. With O=C(NCc1ccco1)c1ccccc1Nc1ccc2c(/C=C/c3ccccn3)n[nH]c2c1 the inhibition at 0.0005 µM was 70%. Work on Cc1ccc(Cl)cc1NC(=O)c1ccccc1Sc1ccc2c(/C=C/c3ccccn3)n[nH]c2c1 yielded an inhibition at 0.0005 µM of 22%. Work on CCCOCCNC(=O)c1ccccc1Nc1ccc2c(/C=C/c3ccccn3)n[nH]c2c1 yielded an inhibition at 0.0005 µM of 28%. Work on C[C@@H](NC(=O)c1ccccc1Sc1ccc2c(/C=C/c3ccccn3)n[nH]c2c1)c1ccccc1 yielded an inhibition at 0.0005 µM of 9%. For CC(C)(C)c1cccc(NC(=O)c2ccccc2Sc2ccc3c(/C=C/c4ccccn4)n[nH]c3c2)c1, the inhibition at 0.0005 µM was -5%. Compound C[C@H](CNC(=O)c1ccccc1Sc1ccc2c(/C=C/c3ccccn3)n[nH]c2c1)c1ccccc1 has an inhibition at 0.0005 µM of -9%. Cc1ccc(NC(=O)c2ccccc2Sc2ccc3c(/C=C/c4ccccn4)n[nH]c3c2)cc1 gave an inhibition at 0.0005 µM of -15%. With C#CCNC(=O)c1ccccc1Nc1ccc2c(/C=C/c3ccccn3)n[nH]c2c1 the inhibition at 0.0005 µM was 95%. Work on COc1ccccc1CNC(=O)c1ccccc1Nc1ccc2c(/C=C/c3ccccn3)n[nH]c2c1 yielded an inhibition at 0.0005 µM of 36%. Work on Cc1cc(C)c(NC(=O)c2ccccc2Sc2ccc3c(/C=C/c4ccccn4)n[nH]c3c2)c(Cl)c1 yielded an inhibition at 0.0005 µM of -26%. Compound O=C(Nc1cccc2c1CCCC2)c1ccccc1Sc1ccc2c(/C=C/c3ccccn3)n[nH]c2c1 has an inhibition at 0.0005 µM of -17%. With O=C(N[C@H](CO)[C@H](O)c1ccccc1)c1ccccc1Sc1ccc2c(/C=C/c3ccccn3)n[nH]c2c1 the inhibition at 0.0005 µM was -1%. With O=C(NCc1ccc2c(c1)OCO2)c1ccccc1Nc1ccc2c(/C=C/c3ccccn3)n[nH]c2c1 the inhibition at 0.0005 µM was 46%. O=C(NNC(=O)c1ccccc1Nc1ccc2c(/C=C/c3ccccn3)n[nH]c2c1)c1cccnc1 gave an inhibition at 0.0005 µM of 31%. With CC(C)(Cc1ccc(F)cc1)NC(=O)c1ccccc1Sc1ccc2c(/C=C/c3ccccn3)n[nH]c2c1 the inhibition at 0.0005 µM was -7%. With CCC(C)(C)NC(=O)c1ccccc1Sc1ccc2c(/C=C/c3ccccn3)n[nH]c2c1 the inhibition at 0.0005 µM was -29%. Work on O=C(N[C@H](CO)c1ccccc1)c1ccccc1Sc1ccc2c(/C=C/c3ccccn3)n[nH]c2c1 yielded an inhibition at 0.0005 µM of 18%. CCONC(=O)c1ccccc1Nc1ccc2c(/C=C/c3ccccn3)n[nH]c2c1 showed an inhibition at 0.0005 µM of 72%. For CCOC(=O)c1cccc(NC(=O)c2ccccc2Sc2ccc3c(/C=C/c4ccccn4)n[nH]c3c2)c1, the inhibition at 0.0005 µM was 7%. CCCCCNC(=O)c1ccccc1Nc1ccc2c(/C=C/c3ccccn3)n[nH]c2c1 gave an inhibition at 0.0005 µM of 49%. For O=C(N[C@H]1CCc2ccccc21)c1ccccc1Sc1ccc2c(/C=C/c3ccccn3)n[nH]c2c1, the inhibition at 0.0005 µM was 8 to 15%. Compound O=C(Nc1cccc(-c2nnco2)c1)c1ccccc1Sc1ccc2c(/C=C/c3ccccn3)n[nH]c2c1 has an inhibition at 0.0005 µM of -23%. O=C(Nc1c(Cl)cccc1Cl)c1ccccc1Sc1ccc2c(/C=C/c3ccccn3)n[nH]c2c1 gave an inhibition at 0.0005 µM of -45%. C[C@@H](NC(=O)c1ccccc1Sc1ccc2c(/C=C/c3ccccn3)n[nH]c2c1)c1ccc2ccccc2c1 gave an inhibition at 0.0005 µM of 1%. With COC(=O)c1ccc(NC(=O)c2ccccc2Sc2ccc3c(/C=C/c4ccccn4)n[nH]c3c2)c(O)c1 the inhibition at 0.0005 µM was -22%. For O=C(NCc1ccc2c(c1)OCC2)c1ccccc1Sc1ccc2c(/C=C/c3ccccn3)n[nH]c2c1, the inhibition at 0.0005 µM was 14%. Compound Cc1cc(C)c(NC(=O)c2ccccc2Sc2ccc3c(/C=C/c4ccccn4)n[nH]c3c2)c(C)c1 has an inhibition at 0.0005 µM of -10%. For O=C(Nc1nccnn1)c1ccccc1Sc1ccc2c(/C=C/c3ccccn3)n[nH]c2c1, the inhibition at 0.0005 µM was 3%. In the case of COc1sc(NC(=O)c2ccccc2Sc2ccc3c(/C=C/c4ccccn4)n[nH]c3c2)nc1C, the inhibition at 0.0005 µM is reported as -2%. Work on O=C(NC12CC3CC(CC(C3)C1)C2)c1ccccc1Sc1ccc2c(/C=C/c3ccccn3)n[nH]c2c1 yielded an inhibition at 0.0005 µM of 3%. For CC(C)ONC(=O)c1ccccc1Nc1ccc2c(/C=C/c3ccccn3)n[nH]c2c1, the inhibition at 0.0005 µM was 35%. With O=C(Nc1cccc2ccc(O)cc12)c1ccccc1Sc1ccc2c(/C=C/c3ccccn3)n[nH]c2c1 the inhibition at 0.0005 µM was -6%. Work on CC(=O)Nc1cccc(NC(=O)c2ccccc2Sc2ccc3c(/C=C/c4ccccn4)n[nH]c3c2)c1 yielded an inhibition at 0.0005 µM of -29%. For Cc1cc(F)ccc1NC(=O)c1ccccc1Sc1ccc2c(/C=C/c3ccccn3)n[nH]c2c1, the inhibition at 0.0005 µM was -22%. Cn1c(NC(=O)c2ccccc2Sc2ccc3c(/C=C/c4ccccn4)n[nH]c3c2)nc2ccccc21 gave an inhibition at 0.0005 µM of -21%. With CC(C)(C)CC(C)(C)NC(=O)c1ccccc1Sc1ccc2c(/C=C/c3ccccn3)n[nH]c2c1 the inhibition at 0.0005 µM was 0%. CCc1cccc(C)c1NC(=O)c1ccccc1Sc1ccc2c(/C=C/c3ccccn3)n[nH]c2c1 showed an inhibition at 0.0005 µM of -4%. Work on CC1(C)C2CC[C@H](CNC(=O)c3ccccc3Sc3ccc4c(/C=C/c5ccccn5)n[nH]c4c3)C1C2 (some centres undefined) yielded an inhibition at 0.0005 µM of -19%. Cc1nc(O)cc(NC(=O)c2ccccc2Sc2ccc3c(/C=C/c4ccccn4)n[nH]c3c2)n1 showed an inhibition at 0.0005 µM of 3%. Work on COc1ccccc1NC(=O)c1ccccc1Sc1ccc2c(/C=C/c3ccccn3)n[nH]c2c1 yielded an inhibition at 0.0005 µM of -8%. COc1cccc(OC)c1NC(=O)c1ccccc1Sc1ccc2c(/C=C/c3ccccn3)n[nH]c2c1 showed an inhibition at 0.0005 µM of -57%. With COc1ccc(NC(=O)c2ccccc2Sc2ccc3c(/C=C/c4ccccn4)n[nH]c3c2)cc1 the inhibition at 0.0005 µM was 4%. In the case of O=C(N[n+]1ccccc1)c1ccccc1Nc1ccc2c(/C=C/c3ccccn3)n[nH]c2c1, the inhibition at 0.0005 µM is reported as 48%. With O=C(NNC(=O)c1ccccc1Nc1ccc2c(/C=C/c3ccccn3)n[nH]c2c1)c1ccccn1 the inhibition at 0.0005 µM was 69%.

Source: ChEMBL document CHEMBL3880421, “Indazole compounds and pharmaceutical compositions for inhibiting protein kinases, and methods for their use” (2003)
